Paper PMC11253633, “Robust leishmanicidal upshot of some new diphenyl triazine-based molecules” (RSC Advances, 2024)
“Also recorded” adds a separate entry of the source.

Assays:
[1] = tested on: L. donovani promastigotes; test: Anti-leishmanial screening against L. donovani promastigotes at a single concentration (MTT); type: cell-based, Leishmania donovani; settings: for Activity against the promastigote parasite (in words) / % Inhibition of L. donovani promastigotes: 100 μM; for inhibition at 100 µM: Leishmania donovani, 72 h; for inhibition at 100 µM / % Inhibition of L. donovani promastigotes: 72 h at 26 °C, MTT
Description: Each candidate was evaluated for its in vitro activity against reference strain (MHOM/IN/83/AG83) of extracellular promastigotes and intracellular amastigotes of L. donovani.
Promastigotes were routinely cultured at 26 °C in medium M199 supplemented with 10% heat inactivated fetal bovine serum (FBS, Gibco Laboratories, Mumbai, India), penicillin 100 (IU mL^−1), streptomycin (100 μg mL^−1). Log phase promastigotes were sub-cultured every 72–96 h, the inoculum being 2 × 10^6 cells per mL.[29]
The triazin hybrids series was evaluated for their antileishmanial ability against L. donovani promastigotes in vitro. Promastigotes of L. donovani (1× 10^6 cells per mL) in M199 medium were incubated at 26 °C for 72 h with each compound at a concentration of 100 μM. Miltefosine (MTF) was used as a reference drug, 0.2% DMSO as solvent control. Parasites with media alone were taken as control. Parasite viability was achieved by MTT assay after 72 h (Sharma et al. 2023).[30]

[2] = tested on: promastigote form of L. donovani; settings: cited from earlier work
[3] = tested on: L. donovani promastigotes; test: Dose-dependent anti-promastigote activity and determination of IC50 (MTT); type: cell-based; settings: Leishmania donovani, 72 h, 3 days at 26 °C
Description: MTF was used as a standard antileishmanial drug control. The cell viability was evaluated (by MTT Assay) and the mean percentage viability was calculated as follows: Mean cell number of treated parasites/mean cell number of untreated parasites × 100. The 50 and 90% inhibitory concentration (IC50) i.e., the concentration of drugs that decreased the cell growth by 50 and 90% respectively, was determined by graphical extrapolation after plotting the graph of percentage viability vs. concentration of the drug.[31]
Parasite viability was not affected by DMSO (0.2%, data not shown) used as solvent control.[33]

L. donovani amastigotes = test: Anti-amastigote assay in infected THP-1 macrophages (Giemsa); type: cell-based, Leishmania donovani
Description: To evaluate the anti-leishmanial effect of the compound T4 and T7 on intracellular L. donovani parasites, macrophage was infected with stationary -phase L. donovani for 6 h. The cells were then washed with saline to remove any non-internalised parasites. To assess the effect of compounds T4 and T7 on intracellular parasites at early stages of infection, macrophages were subsequently treated with T4 and T7 at concentrations of 100, 50, 25, 12.5, or 6.25 μM (refer to Table 3 and Fig. 7) for 6, 24, or 48 hours.
THP-1 cells (5 × 10^5 cells per mL) were cultivated in RPMI-1640 media (Roswell Park Memorial Institute 1640) (Sigma-Aldrich, USA), supplemented with 10% fetal calf serum and maintained at 37 °C with 5% CO2 using phorbol ester as the inducer. These cells were added on circular coverslips (1 × 10^6 cells per mL). Promastigotes of L. donovani were introduced at 1 : 20 ratio. Treatment of the samples was carried out at doses of 100, 50, 25, 12.5, 6.25 and 3.125 μM/72 h. After being taken off, the coverslips were stained with Giemsa. The rate of macrophage infection was then ascertained.

[4] = tested on: L. donovani promastigotes; test: Determination of promastigote cellular morphology (light microscopy); type: cell-based, Leishmania donovani; settings: 25, 50 and 100 μM, 72 h, light microscopy 40×
Description: For the evident of morphological changes, the promastigotes (Fig. 3 (C to L)) were incubated in presence of compound T7, T4 and control Ampho B with the different concentration 25 μM, 50 μM, 100 μM shown in (Fig. 3C to L) were analysed by light microscopy (40×magnification) compared to untreated cells (Fig. 4A).
Fig. 4 Morphological Analysis of promastigote stage cells treated with compound T4 and MTF, compared to the untreated control (A) and DMSO treated control (B). Exponential-phase promastigotes (1 × 10^6 cells per mL) were incubated with 25 μm, 50 μm and 100 μm and analysed by light microscopy (40× magnification). (A) Untreated control (B) DMSO Treated cells (C–E) Ampho B, (F–H) T4 and T7 (I–K) at 25, 50, and 100 μM respectively. Scale bar in all is 10 μm.
Variations in the cellular morphology of Leishmania parasites due to the treatment with compounds T4 and T7 was detected microscopically. Briefly, the promastigotes (1× 10^6 cells per mL) were incubated in the absence or presence of test compounds and MTF and AmphoB for 72 h with different concentrations and observed under 40× objective of a phase-contrast microscope. […] Data were recorded by using NIS-Elements imaging software.[32]

[5] = tested on: Human macrophage THP-1 cell line; test: Cytotoxicity assay on THP-1 cell line (MTT); type: cell-based; settings: 3.125–100 μM
Description: The cell lines were incubated for 48 h at 37 °C in a CO2 incubator with increasing concentrations of test compounds and viability was ascertained. Each point or bar corresponds to the mean ± SEM of triplicate samples and is representative of one of three independent experiments.
THP-1 human monocytic cells were grown at 37 °C in medium RPMI-1640 (pH 7.4, Sigma-Aldrich, St. Louis, MO, USA) supplemented with 10% heat-inactivated FBS for 48 to 72 h in a humidified atmosphere of 5% CO2 and sub-cultured in fresh RPMI-1640 medium at an average density 2 × 10^5 cells per mL (Sharma et al. 2023).[30]
Human macrophage THP-1 cell line of 0.5 × 10^6 cells per mL seeded in RPMI-1640 medium (Sigma-Aldrich, USA) supplemented with 10% FBS (GIBCO) in presence of 5% CO2 at 37 °C in triplicate in 96 well culture plate. The cells were treated with two-fold serially diluted concentrations (100–3.125 μM) of the candidate molecules for 72 h. The IC50 was calculated using MTT assay (Sharma et al. 2023).[30]

Compound | Activity against the promastigote parasite (in words) [1] | inhibition at 100 µM [1] | melting point | % Inhibition of L. donovani promastigotes [1] | also measured
Clc1ccc2c(N3CCN(c4cc(Sc5nnc(-c6ccccc6)c(-c6ccccc6)n5)ncn4)CC3)ccnc2c1 [T10, 7-Chloro-4-(4-(6-((5,6-diphenyl-1,2,4-triazin-3-yl)thio)pyrimidin-4-yl)piperazin-1-yl) quinoline] | negligible activity | 22.4% | 260 to 262 °C |  | 
1,2,4-triazino[5,6-b]indol-3-ylthio-1,3,5-triazine [1 (Fig. 2)] |  |  |  |  | fold more selectivity in comparison to pentamidine [2]: 20 fold; fold more selectivity in comparison to sodium stibogluconate [2]: 10 fold; inhibition against promastigote form of L. donovani [2]: more than 90%; selectivity (S.I.) [2]: 56.61
O=C(CSc1nnc(-c2ccccc2)c(-c2ccccc2)n1)Nc1cc(=O)oc2ccccc12 [T5, 2-((5,6-Diphenyl-1,2,4-triazin-3-yl)thio)-N-(2-oxo-2H-chromen-4-yl)acetamide] |  |  | 200 to 202 °C | 67.93% | 
O=[N+]([O-])c1ccc(N2CCN(c3cc(Sc4nnc(-c5ccccc5)c(-c5ccccc5)n4)ncn3)CC2)cc1 [T14, 123-((6-(4-(4-Nitrophenyl)piperazin-1-yl)pyrimidin-4-yl)thio)-5,6-diphenyl-1,2,4-triazine] | negligible activity; also recorded: minimal activity |  |  | 22.76% | 
C[C@@H]1[C@H](O)[C@@H](C)/C=C/C=C/C=C/C=C/C=C/C=C/C=C/[C@H](O[C@@H]2O[C@H](C)[C@@H](O)[C@H](N)[C@@H]2O)C[C@@H]2O[C@](O)(C[C@@H](O)C[C@@H](O)[C@H](O)CC[C@@H](O)C[C@@H](O)CC(=O)O[C@H]1C)C[C@H](O)[C@H]2C(=O)O [Ampho B, Amphotericin B, reference compound] |  |  |  |  | IC50 [3]: 1.04 µM; Percentage reduction of parasites (amastigote) (L. donovani amastigotes; 6.25 μM): 74%; Percentage reduction of parasites (amastigote) (L. donovani amastigotes; 12.5 μM): 76%; Percentage reduction of parasites (amastigote) (L. donovani amastigotes; 25 μM): 79.44%; Percentage reduction of parasites (amastigote) (L. donovani amastigotes; 50 μM): 82.5%; Percentage reduction of parasites (amastigote) (L. donovani amastigotes; 100 μM): 84.2%
CCOC(=O)c1cnc2ccc(OC)cc2c1Sc1nnc(-c2ccccc2)c(-c2ccccc2)n1 [T2, Ethyl 4-((5,6-diphenyl-1,2,4-triazin-3-yl)thio)-6-methoxyquinoline-3-carboxylate] |  | < 90% | 200 to 202 °C | 71.02% | 
Clc1ccc2c(Sc3nnc(-c4ccccc4)c(-c4ccccc4)n3)ccnc2c1 [T1, 7-Chloro-4-((5,6-diphenyl-1,2,4-triazin-3-yl)thio)quinoline] |  |  | 250 to 252 °C | 66.78% | 
c1ccc(-c2nnc(Sc3cc(N4CCCCC4)ncn3)nc2-c2ccccc2)cc1 [T8, 5,6-Diphenyl-3-((6-(piperidin-1-yl)pyrimidin-4-yl)thio)-1,2,4-triazine] | negligible activity | 73.7% |  |  | 
N#Cc1cccnc1N1CCN(c2cc(Sc3nnc(-c4ccccc4)c(-c4ccccc4)n3)ncn2)CC1 [T9, 2-(4-(6-((5,6-Diphenyl-1,2,4-triazin-3-yl)thio)pyrimidin-4-yl)piperazin-1-yl)nicotinonitrile] | negligible activity | 29.8% | 250 to 252 °C |  | 
COc1ccccc1N1CCN(c2cc(Sc3nnc(-c4ccccc4)c(-c4ccccc4)n3)ncn2)CC1 [T12, 103-((6-(4-(2-methoxyphenyl)piperazin-1-yl)pyrimidin-4-yl)thio)-5,6-diphenyl-1,2,4-triazine] | negligible activity; also recorded: minimal activity |  |  | 21.86% | 
CCOC(=O)c1cnc2ccc(C)cc2c1Sc1nnc(-c2ccccc2)c(-c2ccccc2)n1 [T3, Ethyl 4-((5,6-diphenyl-1,2,4-triazin-3-yl)thio)-6-methylquinoline-3-carboxylate] |  | < 90% | 210 to 212 °C | 83.43% | 
c1ccc(-c2nnc(Sc3cc(N4CCOCC4)ncn3)nc2-c2ccccc2)cc1 [T6, 4-(6-((5,6-Diphenyl-1,2,4-triazin-3-yl)thio)pyrimidin-4-yl)morpholine] | negligible activity | 43.9% | 198 to 200 °C |  | 
Cc1cc(N2CCN(c3cc(Sc4nnc(-c5ccccc5)c(-c5ccccc5)n4)ncn3)CC2)n2ncnc2n1 [T11, 7-(4-(6-((5,6-Diphenyl-1,2,4-triazin-3-yl)thio)pyrimidin-4-yl)piperazin-1-yl)-5-methyl-[1,2,4]triazolo[1,5-a]pyrimidine] | negligible activity | 32.1% | 280 to 285 °C |  | 
CCN1CCN(c2cc(Sc3nnc(-c4ccccc4)c(-c4ccccc4)n3)ncn2)CC1 [T13, 113-((6-(4-Ethylpiperazin-1-yl)pyrimidin-4-yl)thio)-5,6-diphenyl-1,2,4-triazine] | negligible activity; also recorded: minimal activity |  |  | 18.54% | 
CC1CCN(c2cc(Sc3nnc(-c4ccccc4)c(-c4ccccc4)n3)ncn2)CC1 [T7, 3-((6-(4-Methylpiperidin-1-yl)pyrimidin-4-yl)thio)-5,6-diphenyl-1,2,4-triazine] |  | > 90% | 250 to 252 °C | 99.89% | Cellular morphological alterations in promastigotes (in words) [4]: loss of flagella; IC50 [3]: 1.16 µM; Percentage reduction of parasites (amastigote) (L. donovani amastigotes; 6.25 μM): 56%; Percentage reduction of parasites (amastigote) (L. donovani amastigotes; 12.5 μM): 62%; Percentage reduction of parasites (amastigote) (L. donovani amastigotes; 25 μM): 66%; Percentage reduction of parasites (amastigote) (L. donovani amastigotes; 50 μM): 70.6%; Percentage reduction of parasites (amastigote) (L. donovani amastigotes; 100 μM): 72%; Inhibitory activity against amastigotes (in words) (L. donovani amastigotes; 100–6.25 μM, infected macrophages): good inhibitory activity; also recorded: capable of inhibiting the growth
CCCCCCCCCCCCCCCCOP(=O)([O-])OCC[N+](C)(C)C [MTF, miltefosine, reference compound] |  |  |  |  | IC50 [3]: 1.48 µM; Percentage reduction of parasites (amastigote) (L. donovani amastigotes; 6.25 μM): 68%; Percentage reduction of parasites (amastigote) (L. donovani amastigotes; 12.5 μM): 72%; Percentage reduction of parasites (amastigote) (L. donovani amastigotes; 25 μM): 73%; Percentage reduction of parasites (amastigote) (L. donovani amastigotes; 50 μM): 74%; Percentage reduction of parasites (amastigote) (L. donovani amastigotes; 100 μM): 76%; Cytotoxicity on THP-1 human macrophages (in words) [5]: some cytotoxicity; Cytotoxicity on THP-1 human macrophages (in words) ([5]; listed as Miltefosine): nontoxic
Fc1ccc(N2CCN(c3cc(Sc4nnc(-c5ccccc5)c(-c5ccccc5)n4)ncn3)CC2)cc1 [T15, 3-((6-(4-(4-Fluorophenyl)piperazin-1-yl)pyrimidin-4-yl)thio)-5,6-diphenyl-1,2,4-triazine] | negligible activity; also recorded: minimal activity | 28.8% |  |  | 
